Read-outs that look alike come from different tables or passages of the source.
What was measured:
rats = rats gnawing on denatonium benzoate-treated flexible PVC; format: in vivo
[1] = solubility in plastic and solvents; format: physicochemical; conditions: molten flexible PVC
[2] = cited from earlier work
[3] = cited from earlier work; remark: listed apart in the source
[4] = approximately 0.2 grams of denatonium benzoate in 100 grams of clear flexible PVC

SMILES: CC[N+](CC)(CC(=O)Nc1c(C)cccc1C)Cc1ccccc1 [denatonium benzoate]
- deterrence of gnawing on the PVC (rats; [4]): does not deter rats from gnawing and eating the PVC
- effect on rats which ingest the treated PVC (rats; [4]): pronounced soporific effect
- deterrence of gnawing on the PVC (rats; approximately 2.5 grams of denatonium benzoate in 100 grams of clear flexible PVC, also when sample thoroughly washed): quite effective in discouraging rats from gnawing on the plastic
- solubility in polyvinyl chloride (PVC) [1]: readily dissolves
- solubility in polyvinyl chloride (PVC) ([1]; listed as Bitrex™): soluble in PVC
- skin irritation ([2]; at concentrations of 0.05%): does not irritate the skin
- skin irritation ([2]; even in fairly high concentrations): non-irritating to the skin
- solubility in organic solvents ([3]; benzene and chloroform): readily soluble
- solubility in ether ([3]; ether): nearly insoluble

Reference: patent US20040213743A1, “Sensorially active substances embedded in plastic” (priority 1996, published 2004)
